According to PMC3646298 (Pharmaceutical research, 2012):
Like-named read-outs stand apart in the source and are kept apart here.

Assays:
Du-145 = conditions: read-out: Cytotoxicity IC50, ref Ahn et al., MCT 9:2959, 2010 ([33]); cited from earlier work
PPC-1 [1] = conditions: read-out: Cytotoxicity IC50, ref Ahn et al., MCT 9:2959, 2010 ([33]); cited from earlier work
PC-3 tumors = test: PC-3 tumor xenograft study; format: in vivo, nude mice; conditions: PC-3 xenograft, day 1 and 9, end point day 19
PC-3/TxR tumors = test: Paclitaxel-resistant PC-3/TxR tumor xenograft study; format: in vivo, nude mice; conditions: for Body weight End / TGI / Body weight Start: PC-3/TxR xenograft
PC-3/TxR [2] = test: SRB cytotoxicity assay in paclitaxel-resistant PC-3/TxR; format: cell-based, human
PC-3 = test: Apoptosis; format: cell-based, human; conditions: PC-3, 0.8–600 nmol/L, 24 h
LNCaP = conditions: read-out: Cytotoxicity IC50, ref Ahn et al., MCT 9:2959, 2010 ([33]); cited from earlier work
PC-3/TxR [3] = test: Apoptosis; format: cell-based, human; conditions: 0.8–600 nmol/L, 24 h
[4] = Pharmacokinetic study in rats; conditions: female, Sprague-Dawley, rat, plasma, po, 10 mg/kg
[5] = Paclitaxel-resistant PC-3/TxR tumor xenograft study; format: in vivo, nude mice; conditions: male, athymic nude, mouse, tumor, po, 30 mg/kg
U87MG = test: SRB cytotoxicity assay in U87MG glioma; format: cell-based, human; conditions: read-out: Cytotoxicity IC50, 96 h treatment, mean ± SD, N=3
[6] = target: colchicine-binding site on tubulin (Sus scrofa, UniProt P02550+P02554); test: Competitive mass spectrometry binding assay; parameters: species or system porcine; conditions: tubulin 1 mg/mL, competitor 0.2–200 μM
in vitro = conditions: human, Caco-2
in vivo [7] = conditions: female, beagle, dog, plasma, po, 5 mg/kg
in vivo [8] = conditions: male (mice), female (rats, dogs), ICR (mouse), Sprague-Dawley (rat), beagle (dog), po
PPC-1 [9] = test: SRB cytotoxicity assay in PPC-1; format: cell-based; conditions: Homo sapiens, PPC-1, 96 h, read-out: Cytotoxicity IC50
[10] = cited from earlier work
[11] = IV 10 mg/kg, day 1 and 9, end point day 19
[12] = IV 20 mg/kg, day 1 and 9, end point day 19
[13] = PO 10 mg/kg, b.i.d×5/w, end point day 26

Q: With CC(=O)O[C@@]12CO[C@@H]1C[C@H](O)[C@@]1(C)C(=O)[C@H](O)C3=C(C)[C@@H](OC(=O)[C@H](O)[C@@H](NC(=O)OC(C)(C)C)c4ccccc4)C[C@@](O)([C@@H](OC(=O)c4ccccc4)[C@H]21)C3(C)C [Docetaxel] as the compound, how does the IC50 (Du-145) read?
A: 5.2 ± 1 nM

Q: And the IC50 (PPC-1 [1])?
A: 2.7 ± 1 nM

Q: And the “Body weight End” value (PC-3 tumors; IV 10 mg/kg)?
A: 24 ± 2 g

Q: What about the “Body weight End” value (PC-3 tumors; IV 20 mg/kg) of the same compound?
A: 24 ± 3 g

Q: What about the “Body weight End” value (PC-3/TxR tumors; [11]) of the same compound?
A: 25 ± 2 g

Q: And the TGI (PC-3/TxR tumors; [11])?
A: 14%

Q: And the “Body weight End” value (PC-3/TxR tumors; [12])?
A: 25 ± 4 g

Q: What about the TGI (PC-3/TxR tumors; [12]) of the same compound?
A: 56%

Q: What about the “Resistance factor (IC50 in PC-3/TxR compared with PC-3)” value (PC-3/TxR [2]) of the same compound?
A: 15

Q: What about the IC50 (PC-3/TxR [2]; Homo sapiens, PC3-TxR, 96 h, read-out: Cytotoxicity IC50) of the same compound?
A: 18 ± 0.7 nM

Q: What about the “induction of cell apoptosis (DNA histone complex formation)” value (PC-3) of the same compound?
A: potently induced cell apoptosis

Q: And the IC50 (LNCaP)?
A: 4.7 ± 1.3 nM

Q: And the “induction of cell apoptosis (DNA histone complex formation)” value (PC-3/TxR [3])?
A: substantially weaker

Q: Which results are given for COc1cc(C(=O)c2csc(Nc3ccc4[nH]ccc4c3)n2)cc(OC)c1OC [IAT, (2-(1H-indol-5-ylamino)-thiazol-4-yl)(3,4,5-trimethoxyphenyl)methanone]?
A: bioavailability [4]: 24%; Body weight Start (PC-3/TxR tumors; PO 10 mg/kg, b.i.d×5/w): 29 ± 2 g; Body weight End (PC-3/TxR tumors; [13]): 26 ± 3 g; TGI (PC-3/TxR tumors; [13]): 59%; Body weight Start (PC-3/TxR tumors; PO 30 mg/kg, b.i.d×5/w): 29 ± 3 g; Body weight End (PC-3/TxR tumors; PO 30 mg/kg, b.i.d×5/w, end point day 26): 30 ± 2 g; Tumor growth inhibition (PC-3/TxR tumors; paclitaxel-resistant prostate cancer xenograft, treated orally at doses of 3–30 mg/kg): greater than 100%; Kp at 1 h [5]: 0.43 ± 0.33; IC50 (U87MG): 22 ± 30 nM; competition with colchicine for tubulin binding [6]: competed effectively with colchicine for tubulin binding; Papp A→B (in vitro): 99 ×10⁻⁶ cm/s; bioavailability (in vivo [7]): 36%; bioavailability (in vivo [8]): 24 to 36%; induction of cell apoptosis (DNA histone complex formation) (PC-3): equally potent in their ability to induce cell apoptosis; induction of cell apoptosis (DNA histone complex formation) (PC-3/TxR [3]): equally potent in their ability to induce cell apoptosis

Q: With CC(=O)O[C@H]1C(=O)[C@@]2(C)[C@H]([C@H](OC(=O)c3ccccc3)[C@]3(O)C[C@H](OC(=O)[C@H](O)[C@@H](NC(=O)c4ccccc4)c4ccccc4)C(C)=C1C3(C)C)[C@]1(OC(C)=O)CO[C@@H]1C[C@@H]2O [Paclitaxel] as the compound, how does the IC50 (PPC-1 [9]) read?
A: 23 ± 0.8 nM

Q: With CC[C@]1(O)C[C@@H]2CN(CCc3c([nH]c4ccccc34)[C@@](C(=O)OC)(c3cc4c(cc3OC)N(C)[C@H]3[C@@](O)(C(=O)OC)[C@H](OC(C)=O)[C@]5(CC)C=CCN6CC[C@]43[C@@H]65)C2)C1 [Vinblastine] as the compound, how does the “competition with colchicine for tubulin binding” value [6] read?
A: did not inhibit colchicine binding to tubulin

Q: Which neurotoxicity [10] does the source give for COc1cc(C(=O)c2csc(-c3ccccc3)n2)cc(OC)c1OC [SMART-H, 4-(3,4,5-trimethoxybenzoyl)-2-phenyl-thiazole] here?
A: did not find any signs of obvious neurotoxicity
